According to patent US11111253B2, “6-aryl-7-substituted-3-(1H-pyrazol-5-yl)-7H-[1,2,4]triazolo[3,4-b][1,3,4]thiadiazines as inhibitors of the STAT3 pathway with anti-proliferative activity” (UNIVERSITY OF PITTSBURGH—OF THE COMMONWEALTH SYSTEM OF …, priority 2015, dated 2021):

Tests used:
Assay type in all cases: cell-based
STAT1 = STAT1 assay (selectivity); settings: Table 4
Procedure: (§1) Compound samples (in 3-5 mg quantities) were evaluated in a variety of assays. All compound submissions were fully characterized (1H, 13C, IR, FIRMS), satisfied purity criteria (≥95% LC/MC, ELS).

686LN = assay: Growth inhibition 686LN; settings: Table 6; average of 2 experiments
FADU = assay: Growth inhibition FADU; settings: Table 6; average of 2 experiments
OSC19 = assay: Growth inhibition OSC19; settings: Table 6; average of 2 experiments
Cal33 cells = assay: Cal33 growth inhibition; settings: Table 5; * average of 2 experiments
Procedure: as §1

STAT3 = assay: HCS STAT3 assay; settings: Table 4
Procedure: as §1

Q: How did the IC50 (STAT1) turn out when “1-(3-(6-(4-Methoxyphenyl)-7-methyl-7H-[1,2,4]triazolo[3,4-b][1,3,4]thiadiazin-3-yl)-5-phenyl-1H-pyrazol-1-yl)ethanone [8A]” was run?
A: 40.6 ± 7.5 µM

Q: With `CC1Sc2nnc(-c3cc(-c4ccccc4)n[nH]3)n2N=C1c1ccccc1` (stereo not shown) [compound 21] as the compound, how does the GI50 (686LN) read?
A: 32.2 µM

Q: What about the GI50 (FADU) of the same compound?
A: 32.7 µM

Q: What about the GI50 (OSC19) of the same compound?
A: 31.3 µM

Q: Which GI50 (Cal33 cells) does the source give for `COc1ccc(C2=Nn3c(nnc3-c3cc(-c4ccc(Cl)cc4)n[nH]3)S[C@@H]2C)cc1` (single isomer, unassigned; ent-1) [24 (ent-1)] here?
A: 2.7 µM

Q: With “1-(5-(6-(4-methoxyphenyl)-7-methyl-7H-[1,2,4]triazolo[3,4-b][1,3,4]thiadiazin-3-yl)-3-phenyl-1H-pyrazol-1-yl)ethanone [8B]” as the compound, how does the IC50 (STAT3) read?
A: 3.7 µM

Q: What about the IC50 (STAT1) of the same compound?
A: > 50 µM
